In PMC11702208 (RSC Advances, 2025):

Assays:
KM12 = assay: NCI cytotoxicity screen; type: cell-based, human
[1] = test system: Colon cancer subpanel tumor cell lines; assay: NCI cytotoxicity screen, subpanel; type: cell-based, human
HS 578T = assay: NCI cytotoxicity screen; type: cell-based, human
A549/ATCC = assay: NCI cytotoxicity screen; type: cell-based, human
SK-MEL-2 = assay: NCI cytotoxicity screen; type: cell-based, human
IGROV1 = assay: NCI cytotoxicity screen; type: cell-based, human
SK-MEL-28 = assay: NCI cytotoxicity screen; type: cell-based, human
MOLT-4 = assay: NCI cytotoxicity screen; type: cell-based, human
OVCAR-3 = assay: NCI cytotoxicity screen; type: cell-based, human
TK-10 = assay: NCI cytotoxicity screen; type: cell-based, human
K-562 = assay: cells; conditions: Homo sapiens, K562
NCI-H226 = assay: NCI cytotoxicity screen; type: cell-based, human
SF-539 = assay: NCI cytotoxicity screen; type: cell-based, human
NCI-H23 = assay: NCI cytotoxicity screen; type: cell-based, human
BT-549 = assay: NCI cytotoxicity screen; type: cell-based, human
HOP-92 = assay: NCI cytotoxicity screen; type: cell-based, human; conditions: 10.0 μM one dose
HCT-15 = assay: NCI cytotoxicity screen; type: cell-based, human
ACHN = assay: NCI cytotoxicity screen; type: cell-based, human
HL-60(TB) = assay: cells; conditions: Homo sapiens
RPMI-8226 = assay: NCI cytotoxicity screen; type: cell-based, human
[2] = test system: Prostate cancer subpanel tumor cell lines; assay: NCI cytotoxicity screen, subpanel; type: cell-based, human
NCI-H322M = assay: NCI cytotoxicity screen; type: cell-based, human
UO-31 = assay: NCI cytotoxicity screen; type: cell-based, human
NCI/ADR-RES = assay: NCI cytotoxicity screen; type: cell-based, human
PC-3 = assay: NCI cytotoxicity screen; type: cell-based, human
U251 = assay: NCI cytotoxicity screen; type: cell-based, human; conditions: U-251
M14 = assay: NCI cytotoxicity screen; type: cell-based, human
CCRF-CEM = assay: NCI cytotoxicity screen; type: cell-based, human
MDA-MB-468 = assay: NCI cytotoxicity screen; type: cell-based, human
SNB-19 = assay: NCI cytotoxicity screen; type: cell-based, human
[3] = test system: NSC lung cancer subpanel tumor cell lines; assay: NCI cytotoxicity screen, subpanel; type: cell-based, human
SNB-75 = assay: NCI cytotoxicity screen; type: cell-based, human
OVCAR-4 = assay: NCI cytotoxicity screen; type: cell-based, human
UACC-62 = assay: NCI cytotoxicity screen; type: cell-based, human
SK-OV-3 = assay: NCI cytotoxicity screen; type: cell-based, human
HCT-116 = assay: NCI cytotoxicity screen; type: cell-based, human
LOX IMVI = assay: NCI cytotoxicity screen; type: cell-based, human
MDA-MB-231/ATCC = assay: NCI cytotoxicity screen; type: cell-based, human
RXF 393 = assay: NCI cytotoxicity screen; type: cell-based, human
MCF7 = assay: NCI cytotoxicity screen; type: cell-based, human
CAKI-1 = assay: NCI cytotoxicity screen; type: cell-based, human
SR = assay: NCI cytotoxicity screen; type: cell-based, human
EKVX = assay: NCI cytotoxicity screen; type: cell-based, human
NCI-H522 = assay: NCI cytotoxicity screen; type: cell-based, human
SK-MEL-5 = assay: NCI cytotoxicity screen; type: cell-based, human
COLO 205 = assay: NCI cytotoxicity screen; type: cell-based, human
MDA-MB-435 = assay: NCI cytotoxicity screen; type: cell-based, human
[4] = subpanel value, Prostate cancer
[5] = subpanel value, NSC lung cancer

`CCN(CC)c1ccc(C=NNC(=O)CSc2nc3ccccc3c(=O)n2Cc2ccc(S(N)(=O)=O)cc2)c(O)c1` [Compound 5, 4-((2-((2-(2-(4-(Diethylamino)-2-hydroxybenzylidene)hydrazineyl)-2-oxoethyl)thio)-4-oxoquinazolin-3(4H)-yl)methyl)benzenesulfonamide] was tested, and the GI % (KM12; 10.0 μM one dose, KM-12) was 85%, the GI50 (KM12; Homo sapiens, KM12) was 569 nM and the CC50 ([1]; Homo sapiens, read-out: LC50) was > 100000 nM. The GI50 ([1]; Homo sapiens, subpanel value, Colon cancer) was 1600 nM, the GI50 ([1]; subpanel value, Colon cancer) was 1560 nM and the TGI ([1]; subpanel value, Colon cancer) was “c (Compounds showed values > 100 μM)”. It also gave a GI % (HS 578T; 10.0 μM one dose, HS-578T) of 37%, a GI50 (HS 578T; Homo sapiens, Hs-578T) of 2110 nM and a GI % (A549/ATCC; 10.0 μM one dose, A549/ATCC) of 71%. For the same compound, the GI50 (A549/ATCC; Homo sapiens, A549) was 1570 nM, the GI % (SK-MEL-2; 10.0 μM one dose) was 90% and the GI50 (SK-MEL-2; Homo sapiens) was 2410 nM. It also gave a GI % (IGROV1; 10.0 μM one dose, IGROV1) of 74%, a GI50 (IGROV1; Homo sapiens, IGROV-1) of 785 nM and a GI % (SK-MEL-28; 10.0 μM one dose) of 67%. The GI50 (SK-MEL-28; Homo sapiens) was 1620 nM, the GI % (MOLT-4; 10.0 μM one dose) was 89% and the GI50 (MOLT-4; Homo sapiens) was 372 nM. The GI % (OVCAR-3; 10.0 μM one dose, IGROV-3) was 85%, the GI50 (OVCAR-3; Homo sapiens, OVCAR-3) was 287 nM and the GI % (TK-10; 10.0 μM one dose) was 85%. For the same compound, the GI50 (TK-10; Homo sapiens) was 1660 nM, the GI50 (K-562) was 592 nM and the GI % (NCI-H226; 10.0 μM one dose) was 69%. For the same compound, the GI50 (NCI-H226; Homo sapiens) was 894 nM, the GI % (SF-539; 10.0 μM one dose) was 72% and the GI50 (SF-539; Homo sapiens) was 1260 nM. The GI % (NCI-H23; 10.0 μM one dose) was 61%, the GI50 (NCI-H23; Homo sapiens) was 1960 nM and the GI % (BT-549; 10.0 μM one dose) was 67%. For the same compound, the GI50 (BT-549; Homo sapiens) was 2680 nM, the GI % (HOP-92) was 42% and the GI % (HCT-15; 10.0 μM one dose) was 53%. It also gave a GI50 (HCT-15; Homo sapiens) of 3620 nM, a GI % (ACHN; 10.0 μM one dose) of 67% and a GI50 (ACHN; Homo sapiens) of 1580 nM. For the same compound, the GI50 (HL-60(TB)) was 412 nM, the GI % (RPMI-8226; 10.0 μM one dose) was 83% and the GI50 (RPMI-8226; Homo sapiens) was 521 nM. The CC50 ([2]; Homo sapiens, read-out: LC50) was > 100000 nM, the GI50 ([2]; Homo sapiens, subpanel value, Prostate cancer) was 900 nM and the GI50 [2, 4] was 886 nM. For the same compound, the TGI [2, 4] was “c (Compounds showed values > 100 μM)”, the GI % (NCI-H322M; 10.0 μM one dose) was 67% and the GI50 (NCI-H322M; Homo sapiens) was 575 nM. The GI % (UO-31; 10.0 μM one dose) was 54%, the GI50 (UO-31; Homo sapiens) was 2890 nM and the GI % (NCI/ADR-RES; 10.0 μM one dose) was 13%. For the same compound, the GI50 (NCI/ADR-RES; Homo sapiens, five-dose) was > 100000 nM, the GI % (PC-3; 10.0 μM one dose) was 51% and the GI50 (PC-3; Homo sapiens) was 829 nM. The GI % (U251; 10.0 μM one dose) was 76%, the GI50 (U251; Homo sapiens) was 510 nM and the GI % (M14; 10.0 μM one dose) was 96%. The GI50 (M14; Homo sapiens) was 452 nM, the GI % (CCRF-CEM; 10.0 μM one dose) was 90% and the GI50 (CCRF-CEM; Homo sapiens) was 196 nM. It also gave a GI % (MDA-MB-468; 10.0 μM one dose) of 110%, a GI50 (MDA-MB-468; Homo sapiens) of 524 nM and a GI % (SNB-19; 10.0 μM one dose) of 59%. The GI50 (SNB-19; Homo sapiens) was 2100 nM, the CC50 ([3]; Homo sapiens, read-out: LC50) was > 100000 nM and the GI50 ([3]; Homo sapiens, subpanel value, NSC lung cancer) was 1100 nM. For the same compound, the GI50 [3, 5] was 1060 nM, the TGI [3, 5] was “c (Compounds showed values > 100 μM)” and the GI % (SNB-75; 10.0 μM one dose) was 62%. The GI50 (SNB-75; Homo sapiens) was 2860 nM, the GI % (OVCAR-4; 10.0 μM one dose, IGROV-4) was 88% and the GI50 (OVCAR-4; Homo sapiens, OVCAR-4) was 311 nM. It also gave a GI % (UACC-62; 10.0 μM one dose) of 94%, a GI50 (UACC-62; Homo sapiens) of 886 nM and a GI % (SK-OV-3; 10.0 μM one dose) of 79%. For the same compound, the GI50 (SK-OV-3; Homo sapiens) was 1320 nM, the GI % (HCT-116; 10.0 μM one dose) was 79% and the GI50 (HCT-116; Homo sapiens) was 363 nM. For the same compound, the GI % (LOX IMVI; 10.0 μM one dose) was 99%, the GI50 (LOX IMVI; Homo sapiens) was 387 nM and the GI % (MDA-MB-231/ATCC; 10.0 μM one dose, MDA-MB-231/ATCC) was 75%. The GI50 (MDA-MB-231/ATCC; Homo sapiens, MDA-MB-231) was 643 nM, the GI % (RXF 393; 10.0 μM one dose) was 58% and the GI50 (RXF 393; Homo sapiens) was 2500 nM. It also gave a GI % (MCF7; 10.0 μM one dose, MCF-7) of 87%, a GI50 (MCF7; Homo sapiens, MCF7) of 457 nM and a GI % (CAKI-1; 10.0 μM one dose) of 69%. The GI50 (CAKI-1; Homo sapiens) was 1020 nM, the GI % (SR; 10.0 μM one dose) was 90% and the GI50 (SR; Homo sapiens) was 212 nM. For the same compound, the GI % (EKVX; 10.0 μM one dose) was 65%, the GI50 (EKVX; Homo sapiens) was 650 nM and the GI % (NCI-H522; 10.0 μM one dose) was 126%. It also gave a GI50 (NCI-H522; Homo sapiens) of 2400 nM, a GI % (SK-MEL-5; 10.0 μM one dose) of 95% and a GI50 (SK-MEL-5; Homo sapiens) of 1570 nM. It also gave a GI % (COLO 205; 10.0 μM one dose, COLO-205) of 102%, a GI50 (COLO 205; Homo sapiens, COLO 205) of 1510 nM and a GI % (MDA-MB-435; 10.0 μM one dose) of 87%. The GI50 (MDA-MB-435; Homo sapiens) was 2070 nM.
